Test results as given in paper PMC4822259 (Parasites & Vectors, 2016).

How the values were obtained:
Assay type in all cases: cell-based
CqDOP2 = target: T1, CqDOP2 (Culex quinquefasciatus, UniProt A0A0B5H0X6); experiment: IP-One HTRF IP1 accumulation, inhibition of dopamine response, HEK-293
T1 construct: gene DOP2; receptor expressed in HEK-293 cells, from authors' previous work
T1 sequence (A0A0B5H0X6 1-479): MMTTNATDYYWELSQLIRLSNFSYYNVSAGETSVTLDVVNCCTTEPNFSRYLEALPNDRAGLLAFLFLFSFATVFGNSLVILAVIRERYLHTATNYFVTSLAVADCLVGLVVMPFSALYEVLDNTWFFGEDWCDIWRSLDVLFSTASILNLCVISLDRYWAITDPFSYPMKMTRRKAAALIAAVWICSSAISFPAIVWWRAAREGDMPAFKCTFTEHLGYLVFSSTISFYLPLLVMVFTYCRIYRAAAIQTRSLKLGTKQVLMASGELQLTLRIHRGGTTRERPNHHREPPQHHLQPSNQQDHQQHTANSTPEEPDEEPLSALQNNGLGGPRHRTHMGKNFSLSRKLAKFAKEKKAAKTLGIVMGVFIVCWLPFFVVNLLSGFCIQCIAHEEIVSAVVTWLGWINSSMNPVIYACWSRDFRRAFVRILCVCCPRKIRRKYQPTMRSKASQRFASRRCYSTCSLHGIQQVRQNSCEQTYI

AgDOP2 [1] = target: T2, AgDOP2 (Anopheles gambiae, UniProt A0A1W5KQ45); experiment: as above
T2 sequence (A0A1W5KQ45 1-495): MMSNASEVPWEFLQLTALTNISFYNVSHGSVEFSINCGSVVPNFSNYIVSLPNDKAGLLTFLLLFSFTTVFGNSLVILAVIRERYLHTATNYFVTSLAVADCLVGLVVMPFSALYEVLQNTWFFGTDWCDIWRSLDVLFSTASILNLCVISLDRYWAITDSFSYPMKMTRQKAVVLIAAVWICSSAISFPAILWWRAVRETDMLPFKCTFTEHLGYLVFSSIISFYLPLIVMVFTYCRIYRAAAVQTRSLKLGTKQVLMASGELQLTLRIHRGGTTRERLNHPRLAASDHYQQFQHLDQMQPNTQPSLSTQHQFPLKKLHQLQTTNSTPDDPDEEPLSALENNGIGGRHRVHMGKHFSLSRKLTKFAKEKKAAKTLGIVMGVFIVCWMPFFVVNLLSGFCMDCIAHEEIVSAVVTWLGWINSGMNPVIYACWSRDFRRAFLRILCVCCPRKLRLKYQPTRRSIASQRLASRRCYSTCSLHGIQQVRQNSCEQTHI

AaDOP2 = target: T3, AaDOP2 (Aedes aegypti, UniProt H6D5H2); experiment: as above
T3 construct: gene dop2; receptor expressed in HEK-293 cells, from authors' previous work
T3 sequence (H6D5H2 1-476): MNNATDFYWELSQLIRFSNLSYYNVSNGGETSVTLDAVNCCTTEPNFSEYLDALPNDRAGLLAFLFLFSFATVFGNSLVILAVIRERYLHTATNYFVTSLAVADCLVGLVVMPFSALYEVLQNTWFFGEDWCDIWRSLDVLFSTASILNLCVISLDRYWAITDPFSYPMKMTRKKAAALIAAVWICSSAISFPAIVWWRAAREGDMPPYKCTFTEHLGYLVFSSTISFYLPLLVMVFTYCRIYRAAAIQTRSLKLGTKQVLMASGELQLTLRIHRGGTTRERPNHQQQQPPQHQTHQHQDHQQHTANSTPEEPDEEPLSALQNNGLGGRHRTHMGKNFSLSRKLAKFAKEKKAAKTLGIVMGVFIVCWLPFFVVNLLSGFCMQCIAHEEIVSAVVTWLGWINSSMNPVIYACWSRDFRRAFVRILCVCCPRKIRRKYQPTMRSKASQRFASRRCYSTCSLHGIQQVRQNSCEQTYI

AgDOP2 [2] = target: T2, AgDOP2; experiment: IP-One HTRF IP1 accumulation, agonist stimulation, HEK-293

With CN(C)CCC=C1c2ccccc2CCc2ccccc21 [Amitriptyline] the IC50 (CqDOP2) was 80 ± 7 nM, the IC50 (AgDOP2 [1]) was 230 ± 20 nM and the IC50 (AaDOP2) was 50 ± 3 nM.
In the case of CCNC(=O)N1CCN(CCCC(c2ccc(F)cc2)c2ccc(F)cc2)CC1 [Amperozide], the IC50 (CqDOP2) is reported as 2600 ± 600 nM, the IC50 (AgDOP2 [1]) is reported as 18800 ± 11000 nM and the IC50 (AaDOP2) is reported as 5100 ± 1000 nM.
Compound CN1CC2c3ccccc3Oc3ccc(Cl)cc3C2C1 (stereo not drawn) [Asenapine] has an IC50 (CqDOP2) of 20 ± 4 nM, an IC50 (AgDOP2 [1]) of 0.7 ± 0.08 nM and an IC50 (AaDOP2) of 3 ± 0.5 nM.
For CN(C)CC/C=C1/c2ccccc2Sc2ccc(Cl)cc21 [Chlorprothixene], the IC50 (CqDOP2) was 10 ± 2 nM and the IC50 (AgDOP2 [1]) was 400 ± 7 nM.
Work on CSc1ccc2c(c1)C(N1CCN(C)CC1)Cc1ccccc1S2 (stereo not drawn) [Methiothepin] yielded an IC50 (CqDOP2) of 10 ± 5 nM, an IC50 (AgDOP2 [1]) of 140 ± 8 nM and an IC50 (AaDOP2) of 3 ± 1 nM.
CN1CCc2cc(Cl)c(O)cc2[C@@H](c2ccccc2)C1 [SCH23390] gave an IC50 (CqDOP2) of 8300 ± 1000 nM, an IC50 (AgDOP2 [1]) of 3600 ± 800 nM and an IC50 (AaDOP2) of 4700 ± 800 nM.
With NCCc1ccc(O)c(O)c1 [dopamine] the EC50 (AgDOP2 [2]) was 4700 ± 400 nM.
